The values below come from EP3436445B1, “HISTONE DEMETHYLASE INHIBITORS” (Celgene Quanticel Research, Inc., priority 2016, dated 2017).

Bounds are passed on as bounds.

One assay addresses T1, Jarid1B (Homo sapiens, UniProt Q9UGL1).
T1 construct: purchased BPS Bioscience (or custom made by MolecularThroughput) 50121
T1 sequence (Q9UGL1 2-751): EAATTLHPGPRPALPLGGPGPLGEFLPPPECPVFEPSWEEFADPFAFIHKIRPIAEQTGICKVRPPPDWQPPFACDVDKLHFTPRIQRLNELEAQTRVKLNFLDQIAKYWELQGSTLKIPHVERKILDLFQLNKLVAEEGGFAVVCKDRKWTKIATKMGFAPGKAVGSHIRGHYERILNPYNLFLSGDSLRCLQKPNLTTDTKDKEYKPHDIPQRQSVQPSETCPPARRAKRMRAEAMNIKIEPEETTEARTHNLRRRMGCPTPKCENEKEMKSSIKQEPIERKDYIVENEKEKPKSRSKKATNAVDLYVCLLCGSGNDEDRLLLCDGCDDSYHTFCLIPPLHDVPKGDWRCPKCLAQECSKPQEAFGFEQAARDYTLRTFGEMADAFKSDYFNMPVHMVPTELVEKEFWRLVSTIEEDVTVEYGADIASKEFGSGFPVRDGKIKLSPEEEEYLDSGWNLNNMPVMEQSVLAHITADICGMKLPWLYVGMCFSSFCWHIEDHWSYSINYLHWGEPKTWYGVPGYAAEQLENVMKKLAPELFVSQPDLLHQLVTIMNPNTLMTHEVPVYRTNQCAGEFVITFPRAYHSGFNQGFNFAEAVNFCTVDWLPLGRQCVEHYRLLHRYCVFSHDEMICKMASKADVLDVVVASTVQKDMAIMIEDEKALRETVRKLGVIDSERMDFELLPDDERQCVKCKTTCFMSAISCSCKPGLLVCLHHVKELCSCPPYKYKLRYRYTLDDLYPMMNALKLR
Description: Jarid1B in vitro enzyme inhibition assay (TR-FRET). The assay is classed as biochemical. The note with it: Table 5; 0.8 nM Jarid1B, H3K4me3-biotin labeled peptide; read-out: JARID1B IC5. From the text:
(§1) This assay determines the ability of a test compound to inhibit Jarid1B, JMJD2C and JMJD3 demethylase activity. Baculovirus expressed Jarid1B (GenBank Accession #NM-006618, AA 2-751) was purchased from BPS Bioscience (Cat #50121) or custom made by MolecularThroughput. Baculovirus expressed JMJD2C (GenBank Accession #BC143571, AA 2-372) was purchased from BPS Bioscience (Cat#50105). Baculovirus expressed JMJD3 (GenBank Accession #NM-001080424, AA1043-end) was purchased from BPS Bioscience (Cat#50115).
The ability of test compounds to inhibit the activity of Jarid1B was determined in 384-well plate format under the following reaction conditions: 0.8 nM Jarid1B, 300 nM H3K4me3-biotin labeled peptide (Anaspec cat #64357), 2 µM alpha-ketoglutaric acid in assay buffer of 50 mM HEPES, pH7.3, 0.005% Brij35, 0.5 mM TCEP, 0.2 mg/ml BSA, 50 µM sodium L-ascorbate, and 2 µM ammonium iron(II) sulfate. Reaction product was determined quantitatively by TR-FRET after the addition of detection reagent Phycolink Streptavidin-allophycocyanin (Prozyme) and Europium-anti-mono-or di-methylated histone H3 lysine 4 (H3K4me1-2) antibody (PerkinElmer) in the presence of 5 mM EDTA in LANCE detection buffer (PerkinElmer) at a final concentration of 25 nM and 1 nM, respectively.
The assay reaction was initiated by the following: 2 µl of the mixture of 900 nM H3K4me3-biotin labeled peptide and 6 µM alpha-ketoglutaric acid with 2 µl of 11-point serial diluted inhibitor in 3% DMSO was added to each well of the plate, followed by the addition of 2 µl of 2.4 nM Jarid1B to initiate the reaction. The reaction mixture was incubated at room temperature for 30 minutes, and terminated by the addition of 6 µl of 5 mM EDTA in LANCE detection buffer containing 50 nM Phycolink Streptavidin-allophycocyanin and 2 nM Europium-anti-H3K4me1-2 antibody. Plates were read by EnVisionMultilabel Reader in TR-FRET mode (excitation at 320 nm, emission at 615 nm and 665 nm) after 1 hour incubation at room temperature. A ratio was calculated (665/615) for each well and fitted to determine inhibition constant (IC50).
Background: TR-FRET usually uses a lanthanide donor and a delayed reading to cut background.

For a further assay, the target named is T2, JMJD3 (Homo sapiens, UniProt O15054).
T2 construct: purchased BPS Bioscience 50115
T2 sequence (O15054 1043-1682 isoform O15054-1): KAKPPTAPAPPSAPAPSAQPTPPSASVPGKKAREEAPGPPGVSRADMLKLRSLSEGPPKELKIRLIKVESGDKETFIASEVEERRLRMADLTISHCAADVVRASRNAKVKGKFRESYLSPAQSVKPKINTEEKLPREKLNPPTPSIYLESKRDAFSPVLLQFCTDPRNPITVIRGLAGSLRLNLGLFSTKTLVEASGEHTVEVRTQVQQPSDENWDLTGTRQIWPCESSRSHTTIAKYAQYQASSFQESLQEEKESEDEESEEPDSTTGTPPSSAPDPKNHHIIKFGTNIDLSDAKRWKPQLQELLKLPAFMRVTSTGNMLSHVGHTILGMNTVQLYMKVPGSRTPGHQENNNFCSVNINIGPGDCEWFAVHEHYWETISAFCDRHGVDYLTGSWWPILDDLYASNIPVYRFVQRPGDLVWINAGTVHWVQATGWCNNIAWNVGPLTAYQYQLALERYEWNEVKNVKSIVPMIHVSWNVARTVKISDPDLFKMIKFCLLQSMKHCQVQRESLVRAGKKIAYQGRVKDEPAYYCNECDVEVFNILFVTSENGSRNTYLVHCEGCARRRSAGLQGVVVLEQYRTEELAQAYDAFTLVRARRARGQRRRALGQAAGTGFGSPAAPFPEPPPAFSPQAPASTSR
Description: JMJD3 in vitro enzyme inhibition assay (AlphaScreen). The note with it: Table 5; 1 nM JMJD3, H3K27me3-biotin labeled peptide. The assay is classed as biochemical.
Description: as §1
The ability of test compounds to inhibit the activity of JMJD3 was determined in 384-well plate format under the following reaction conditions: 1 nM JMJD3, 250 nM H3K27me3-biotin labeled peptide (Anaspec cat # 64367), 1 µM alpha-ketoglutaric acid in assay buffer of 50 mM HEPES, pH7.3, 0.005% Brij35, 0.5 mM TCEP, 0.2 mg/ml BSA, 50 µM sodium L-ascorbate, 5 µM ammonium iron(II) sulfate. Reaction product is determined quantitatively by AlphaScreen detection after the addition of detection reagents anti-H3K27me1 antibody, 5 µg/ml AlphaScreen® Streptavidin-coated Donor beads, and 5 µg/ml AlphaScreen® Protein A Acceptor beads in 50 mM HEPES, pH7.3, 10 mM NaCl, 0.005% Brij35, 10 mM EDTA, 2 mg/ml BSA.
The assay reaction was initiated by the following: 3 µl of the mixture of 750 nM H3K27me3-biotin labeled peptide and 3 µM alpha-ketoglutaric acid with 3 µl of 11-point serial diluted inhibitor in 3% DMSO are added to each well of 384 well Proxiplate (Perkin Elmer), followed by the addition of 3 µl of 3 nM JMJD3 to initiate the reaction. The reaction mixture is incubated at room temperature for 20 minutes, and terminated by the addition of 3 µl of appropriate dilution of anti H3K27me1 antibody in 50 mM HEPES, pH7.3, 10 mM NaCl, 0.005% Brij35, 10 mM EDTA, 2 mg/ml BSA. Plates will then incubated at room temperature for 1 hour, followed by addition of 3 µl of 25 µg/ml AlphaScreen® Streptavidin-coated Donor beads and AlphaScreen® Protein A Acceptor beads in 50 mM HEPES, pH7.3, 10 mM NaCl, 0.005% Brij35, 10 mM EDTA, 2 mg/ml BSA. Plates will then be read by EnVision Multilabel Reader in AlphaScreen mode after minimum 2 hour incubation at room temperature. The AlphaScreen signal for each well is used to determine inhibition constant (IC50).

Consider `Fc1cccc(F)c1CCn1cnc(-c2cc(-c3nn[nH]c3C(F)(F)F)ccn2)c1` [Example 87, 2-{1-[2-(2,6-difluorophenyl)ethyl]-1H-imidazol-4-yl}-4-[5-(trifluoromethyl)-1H-1,2,3-triazol-4-yl]pyridine], for which the IC50 on Jarid1B was 100 to 1000 nM; against JMJD3, greater than 10000 nM.
Regarding `Fc1ccc(F)c(CCn2cnc(-c3cc(-c4nn[nH]c4C(F)(F)F)ccn3)c2)c1` [Example 88, 2-{1-[2-(2,5-difluorophenyl)ethyl]-1H-imidazol-4-yl}-4-[5-(trifluoromethyl)-1H-1,2,3-triazol-4-yl]pyridine], the IC50 was no more than 100 nM at Jarid1B and greater than 10000 nM at JMJD3.
As to `O=C(c1ccccc1)N1CCC[C@@H](n2cnc(-c3cc(-c4nn[nH]c4C(F)(F)F)ccn3)c2)C1` [Example 89, 2-{1-[(3R)-1-benzoylpiperidin-3-yl]-1H-imidazol-4-yl}-4-[5-(trifluoromethyl)-1H-1,2,3-triazol-4-yl]pyridine], the IC50 on Jarid1B is no more than 100 nM; on JMJD3, greater than 10000 nM.
Take `O=C(c1ccccc1)N1CCC[C@H](n2cnc(-c3cc(-c4nn[nH]c4C(F)(F)F)ccn3)c2)C1` [Example 90, 2-{1-[(3S)-1-benzoylpiperidin-3-yl]-1H-imidazol-4-yl}-4-[5-(trifluoromethyl)-1H-1,2,3-triazol-4-yl]pyridine]: the IC50 was no more than 100 nM on Jarid1B and greater than 10000 nM against JMJD3.
For the compound `Cc1ccc(CCn2cnc(-c3cc(-c4nn[nH]c4C(F)(F)F)ccn3)c2)cc1` [Example 91, 2-{1-[2-(4-methylphenyl)ethyl]-1H-imidazol-4-yl}-4-[5-(trifluoromethyl)-1H-1,2,3-triazol-4-yl]pyridine], the IC50 at Jarid1B is 100 to 1000 nM; against JMJD3, greater than 10000 nM.
Turning to `FC(F)(F)c1[nH]nnc1-c1ccnc(-c2cn(CCc3ccc(Cl)cc3)cn2)c1` [Example 92, 2-{1-[2-(4-chlorophenyl)ethyl]-1H-imidazol-4-yl}-4-[5-(trifluoromethyl)-1H-1,2,3-triazol-4-yl]pyridine], the IC50 on Jarid1B was 100 to 1000 nM; against JMJD3 it was greater than 10000 nM.
In the case of `COc1ccc(CCn2cnc(-c3cc(-c4nn[nH]c4C(F)(F)F)ccn3)c2)cc1` [Example 93, 2-{1-[2-(4-methoxyphenyl)ethyl]-1H-imidazol-4-yl}-4-[5-(trifluoromethyl)-1H-1,2,3-triazol-4-yl]pyridine], the IC50 was no more than 100 nM at Jarid1B and greater than 10000 nM against JMJD3.
For the compound `FC(F)(F)c1ccc(CCn2cnc(-c3cc(-c4nn[nH]c4C(F)(F)F)ccn3)c2)cc1` [Example 94, 4-[5-(trifluoromethyl)-1H-1,2,3-triazol-4-yl]-2-(1-{2-[4-(trifluoromethyl)phenyl]ethyl}-1H-imidazol-4-yl)pyridine], the IC50 at Jarid1B is 100 to 1000 nM; against JMJD3, greater than 10000 nM.
Turning to `CCc1ccc(CCn2cnc(-c3cc(-c4nn[nH]c4C(F)(F)F)ccn3)c2)cc1` [Example 95, 2-{1-[2-(4-ethylphenyl)ethyl]-1H-imidazol-4-yl}-4-[5-(trifluoromethyl)-1H-1,2,3-triazol-4-yl]pyridine], the figures for the IC50 at Jarid1B and against JMJD3 were 100 to 1000 nM and greater than 10000 nM, respectively.
Regarding `CC(C)(C)c1ccc(CCn2cnc(-c3cc(-c4nn[nH]c4C(F)(F)F)ccn3)c2)cc1` [Example 96, 2-{1-[2-(4-tert-butylphenyl)ethyl]-1H-imidazol-4-yl}-4-[5-(trifluoromethyl)-1H-1,2,3-triazol-4-yl]pyridine], the IC50 was 100 to 1000 nM at Jarid1B and greater than 10000 nM against JMJD3.
As to `Cn1cnc(-c2cc(-c3nn[nH]c3C(F)(F)F)ccn2)c1-c1ccc(F)cc1` [Example 97, 2-[5-(4-fluorophenyl)-1-methyl-1H-imidazol-4-yl]-4-[5-(trifluoromethyl)-1H-1,2,3-triazol-4-yl]pyridine], the IC50 is no more than 100 nM on Jarid1B and greater than 10000 nM on JMJD3.
For `FC(F)(F)c1[nH]nnc1-c1ccnc(-c2cn(CC3CCOc4ccccc43)cn2)c1` (centres unmarked) [Example 98, 2-{1-[(3,4-dihydro-2H-1-benzopyran-4-yl)methyl]-1H-imidazol-4-yl}-4-[5-(trifluoromethyl)-1H-1,2,3-triazol-4-yl]pyridine], the IC50 at Jarid1B is no more than 100 nM; on JMJD3, greater than 10000 nM.
In the case of `Fc1ccc2c(c1)CCCC2Cn1cnc(-c2cc(-c3nn[nH]c3C(F)(F)F)ccn2)c1` (centres unmarked) [Example 100, 2-{1-[(6-fluoro-1,2,3,4-tetrahydronaphthalen-1-yl)methyl]-1H-imidazol-4-yl}-4-[5-(trifluoromethyl)-1H-1,2,3-triazol-4-yl]pyridine], the IC50 was no more than 100 nM at Jarid1B and greater than 10000 nM on JMJD3.
For the compound `Fc1ccc2c(c1)C(Cn1cnc(-c3cc(-c4nn[nH]c4C(F)(F)F)ccn3)c1)CCC2` (centres unmarked) [Example 101, 2-{1-[(7-fluoro-1,2,3,4-tetrahydronaphthalen-1-yl)methyl]-1H-imidazol-4-yl}-4-[5-(trifluoromethyl)-1H-1,2,3-triazol-4-yl]pyridine], the IC50 at Jarid1B was no more than 100 nM; against JMJD3, greater than 10000 nM.
Taken in the same sequence, the figures for `Cc1ccc2c(c1)CCCC2Cn1cnc(-c2cc(-c3nn[nH]c3C(F)(F)F)ccn2)c1` (centres unmarked) [Example 102, 2-{1-[(6-methyl-1,2,3,4-tetrahydronaphthalen-1-yl)methyl]-1H-imidazol-4-yl}-4-[5-(trifluoromethyl)-1H-1,2,3-triazol-4-yl]pyridine] were 100 to 1000 nM and greater than 10000 nM.
As to `Cc1ccc2c(c1)C(Cn1cnc(-c3cc(-c4nn[nH]c4C(F)(F)F)ccn3)c1)CCC2` (centres unmarked) [Example 103, 2-{1-[(7-methyl-1,2,3,4-tetrahydronaphthalen-1-yl)methyl]-1H-imidazol-4-yl}-4-[5-(trifluoromethyl)-1H-1,2,3-triazol-4-yl]pyridine], the IC50 at Jarid1B is no more than 100 nM; against JMJD3, greater than 10000 nM.
